Patent US20240299352A1, “COMBINATION THERAPIES WITH SETD2 INHIBITORS” (Epizyme, Inc., priority 2021, published 2024)

How the values were obtained:
[1] = tested on: diffuse large B-cell lymphoma (DLBCL) cell lines; test: Co-treatment combination study with Cpd. No. 15, further cell lines (Table F), CellTiter-Glo viability, Loewe Volume; type: cell-based; conditions: for Combination effect with Cpd. No. 15 (Loewe Volume class), Ri1: co-treatment with Cpd. No. 15, cell line Ri1 (Cat. No. 96090512-1VL); for Combination effect with Cpd. No. 15 (Loewe Volume class), TMD8: co-treatment with Cpd. No. 15, cell line TMD8 (Cat. No. M-097); for Combination effect with Cpd. No. 15 (Loewe Volume class), WILL1: co-treatment with Cpd. No. 15, cell line WILL1 (Cat. No. ACC 651)
Protocol: (§1) Mantle cell lymphoma (MCL) and diffuse large B-cell lymphoma (DLBCL) cell line cultures in log-linear growth rate were treated with combinations of Cpd. No. 15 and combination partners according to a co-treatment model. […] No. 15 and the combination partner. […] Each combination was tested in quadruplicate wells. The final concentration of DMSO (vehicle) in the assay was 0.1% v/v. Fifty microliters of cell line suspension were directly dispensed to the assay-ready plates with an automated multichannel dispenser on to 384-well assay-ready plates. Assay plates were incubated for seven days unless otherwise indicated in a humidified atmosphere of 5% CO2 at 37° C. Quantification of the effect of single agents or combinations on cell viability was performed through measurement of cellular adenosine triphosphate (ATP) using a CellTiter-Glo® (Promega, Madison, WI) Luminescent Cell Viability Assay. Luminescence was detected using a SpectraMax M5 microplate reader (Molecular Devices, Sunnyvale, CA). Concentration response plots were generated in GraphPad Prism version 7.0 for Windows, GraphPad Software, (La Jolla, California) and curves fitted to a four-parameter logistic model with variable slope. Percent of inhibition was calculated at each treatment concentration.

WSUNHL = test: Co-treatment combination study with Cpd. No. 15, CellTiter-Glo viability, Loewe Volume; type: cell-based; conditions: in combination with Cpd. No. 15, seven days, DLBCL cell line WSUNHL
Protocol: as §1

DB = test: as above; type: cell-based; conditions: in combination with Cpd. No. 15, seven days, DLBCL cell line DB
Protocol: as §1

REC1 = test: as above; type: cell-based; conditions: in combination with Cpd. No. 15, seven days, mantle cell lymphoma cell line REC1 (CRL-3004)
Protocol: as §1

TOLEDO = test: as above; type: cell-based; conditions: in combination with Cpd. No. 15, seven days, DLBCL cell line TOLEDO
Protocol: as §1

SUDHL5 = test: as above; type: cell-based; conditions: in combination with Cpd. No. 15, seven days, DLBCL cell line SUDHL5
Protocol: as §1

KARPAS422 = test: as above; type: cell-based; conditions: in combination with Cpd. No. 15, seven days, DLBCL cell line KARPAS422
Protocol: as §1

JEKO1 = test: as above; type: cell-based; conditions: in combination with Cpd. No. 15, seven days, mantle cell lymphoma cell line JEKO1 (CRL-3006)
Protocol: as §1

JVM2 = test: as above; type: cell-based; conditions: in combination with Cpd. No. 15, seven days, mantle cell lymphoma cell line JVM2 (CRL-3002)
Protocol: as §1

SUDHL2 = test: as above; type: cell-based; conditions: in combination with Cpd. No. 15, seven days, DLBCL cell line SUDHL2
Protocol: as §1

RL = test: as above; type: cell-based; conditions: in combination with Cpd. No. 15; 6-Day Cotreatment; DLBCL cell line RL
Protocol: as §1

MAVER1 = test: as above; type: cell-based; conditions: in combination with Cpd. No. 15, seven days, mantle cell lymphoma cell line MAVER1 (CRL-3008)
Protocol: as §1

MINO = test: as above; type: cell-based; conditions: in combination with Cpd. No. 15, seven days, mantle cell lymphoma cell line MINO (CRL-3000)
Protocol: as §1

Pfeiffer = test: as above; type: cell-based; conditions: in combination with Cpd. No. 15, seven days, DLBCL cell line Pfeiffer
Protocol: as §1

SUDHL10 = test: as above; type: cell-based; conditions: in combination with Cpd. No. 15; 5-Day Cotreatment; DLBCL cell line SUDHL10
Protocol: as §1

SUDHL4 = test: as above; type: cell-based; conditions: in combination with Cpd. No. 15, seven days, DLBCL cell line SUDHL4
Protocol: as §1

SUDHL8 = test: as above; type: cell-based; conditions: in combination with Cpd. No. 15, seven days, DLBCL cell line SUDHL8
Protocol: as §1

WILL2 = test: as above; type: cell-based; conditions: in combination with Cpd. No. 15, seven days, DLBCL cell line WILL2
Protocol: as §1

WSUDLCL2 = test: as above; type: cell-based; conditions: in combination with Cpd. No. 15, seven days, DLBCL cell line WSUDLCL2
Protocol: as §1

HT = test: as above; type: cell-based; conditions: in combination with Cpd. No. 15, seven days, DLBCL cell line HT
Protocol: as §1

Z138 = test: as above; type: cell-based; conditions: in combination with Cpd. No. 15, seven days, mantle cell lymphoma cell line Z138 (CRL-3001)
Protocol: as §1

GRANTA519 = test: as above; type: cell-based; conditions: in combination with Cpd. No. 15, seven days, mantle cell lymphoma cell line GRANTA519 (ACC 342)
Protocol: as §1

SUDHL6 = test: as above; type: cell-based; conditions: in combination with Cpd. No. 15, seven days, DLBCL cell line SUDHL6
Protocol: as §1

DOHH2 = test: as above; type: cell-based; conditions: in combination with Cpd. No. 15, seven days, DLBCL cell line DOHH2
Protocol: as §1

[2] = tested on: diffuse large B-cell lymphoma (DLBCL) cell lines; test: Pre-treatment model combination study with Cpd. No. 15 (7 days pre-treatment, then combination; Table G), CellTiter-Glo viability, Loewe Volume; conditions: 7 days pre-treatment with Cpd. No. 15, then combination

| Compound | Combination effect with Cpd. No. 15 (Loewe Volume class), Ri1 [1] | Combination effect with Cpd. No. 15 (Loewe Volume class), TMD8 [1] | Combination effect with Cpd. No. 15 (Loewe Volume class), WILL1 [1] | Combination effect (Loewe Volume) WSUNHL (WSUNHL) | Combination effect (Loewe Volume) DB (DB) | Combination effect (Loewe Volume) REC1 (REC1) | Combination effect (Loewe Volume) TOLEDO (TOLEDO) | Combination effect (Loewe Volume) SUDHL5 (SUDHL5) | Combination effect (Loewe Volume) KARPAS422 (KARPAS422) | Combination effect (Loewe Volume) SUDHL2 (SUDHL2) | Combination effect (Loewe Volume) RL (RL) | Combination effect (Loewe Volume) Pfeiffer (Pfeiffer) | Combination effect (Loewe Volume) SUDHL10 (SUDHL10) | Combination effect (Loewe Volume) SUDHL4 (SUDHL4) | Combination effect (Loewe Volume) SUDHL8 (SUDHL8) | Combination effect (Loewe Volume) WILL2 (WILL2) | Combination effect (Loewe Volume) WSUDLCL2 (WSUDLCL2) | Combination effect (Loewe Volume) HT (HT) | Combination effect (Loewe Volume) SUDHL6 (SUDHL6) | Combination effect (Loewe Volume) DOHH2 (DOHH2) | also measured |
| --- | --- | --- | --- | --- | --- | --- | --- | --- | --- | --- | --- | --- | --- | --- | --- | --- | --- | --- | --- | --- | --- |
| COc1cccc2c1C(=O)c1c(O)c3c(c(O)c1C2=O)C[C@@](O)(C(=O)CO)C[C@@H]3O[C@H]1C[C@H](N)[C@H](O)[C@H](C)O1 [Doxorubicin, doxorubicin] | Synergy (VLoewe>1: synergy) | Additivity (between 1 and −1: additivity) | Additivity (between 1 and −1: additivity) | Additivity (between 1 and −1: additivity) | Additivity (between 1 and −1: additivity) | Additivity (between 1 and −1: additivity) | Synergy (VLoewe>1: synergy) | Additivity (between 1 and −1: additivity) | Additivity (between 1 and −1: additivity) | Additivity (between 1 and −1: additivity) | Additivity (between 1 and −1: additivity) | Additivity (between 1 and −1: additivity) | Additivity (between 1 and −1: additivity) | Additivity (between 1 and −1: additivity) | Additivity (between 1 and −1: additivity) | Additivity (between 1 and −1: additivity) | Additivity (between 1 and −1: additivity) | Additivity (between 1 and −1: additivity) | Synergy (VLoewe>1: synergy) | Additivity (between 1 and −1: additivity) | Combination effect (Loewe Volume) JEKO1 (JEKO1): Additivity (between 1 and −1: additivity); Combination effect (Loewe Volume) JVM2 (JVM2): Additivity (between 1 and −1: additivity); Combination effect (Loewe Volume) MAVER1 (MAVER1): Additivity (between 1 and −1: additivity); Combination effect (Loewe Volume) MINO (MINO): Additivity (between 1 and −1: additivity); Combination effect (Loewe Volume) Z138 (Z138): Additivity (between 1 and −1: additivity); Combination effect (Loewe Volume) GRANTA519 (GRANTA519): Additivity (between 1 and −1: additivity) |
| Nc1ccn([C@@H]2O[C@H](CO)[C@@H](O)C2(F)F)c(=O)n1 [Gemcitabine, gemcitabine] | Additivity (between 1 and −1: additivity) | Additivity (between 1 and −1: additivity) | Additivity (between 1 and −1: additivity) | Additivity (between 1 and −1: additivity) | Additivity (between 1 and −1: additivity) | – | Additivity (between 1 and −1: additivity) | Additivity (between 1 and −1: additivity) | Additivity (between 1 and −1: additivity) | Additivity (between 1 and −1: additivity) | Additivity (between 1 and −1: additivity) | Additivity (between 1 and −1: additivity) | Additivity (between 1 and −1: additivity) | Additivity (between 1 and −1: additivity) | Additivity (between 1 and −1: additivity) | Additivity (between 1 and −1: additivity) | Additivity (between 1 and −1: additivity) | Additivity (between 1 and −1: additivity) | Additivity (between 1 and −1: additivity) | Additivity (between 1 and −1: additivity) | Combination effect with Cpd. No. 15 (Loewe Volume class), Farage ([2]; cell line Farage (Cat. No. CRL-2630)): Additivity (between 1 and −1: additivity); Combination effect with Cpd. No. 15 (Loewe Volume class), HT ([2]; cell line HT (Cat. No. CRL-2631)): Additivity (between 1 and −1: additivity); Combination effect with Cpd. No. 15 (Loewe Volume class), OCILY7 ([2]; cell line OCILY7 (Cat. No. ACC 688)): Additivity (between 1 and −1: additivity); Combination effect with Cpd. No. 15 (Loewe Volume class), SUDHL4 ([2]; cell line SUDHL4 (Cat. No. ACC 495)): Additivity (between 1 and −1: additivity); Combination effect with Cpd. No. 15 (Loewe Volume class), WILL2 ([2]; cell line WILL2 (Cat. No. ACC 652)): Additivity (between 1 and −1: additivity) |
| C=CC(=O)N1CCC[C@@H](n2nc(-c3ccc(Oc4ccccc4)cc3)c3c(N)ncnc32)C1 [Ibrutinib, ibrutinib] | – | – | – | Additivity (between 1 and −1: additivity) | No Effect | Additivity (between 1 and −1: additivity) | No Effect | No Effect | No Effect | No Effect | Additivity (between 1 and −1: additivity) | No Effect | No Effect | Synergy (VLoewe>1: synergy) | No Effect | Additivity (between 1 and −1: additivity) | Additivity (between 1 and −1: additivity) | No Effect | Synergy (VLoewe>1: synergy) | Synergy (VLoewe>1: synergy) | Combination effect (Loewe Volume) JEKO1 (JEKO1): Synergy (VLoewe>1: synergy); Combination effect (Loewe Volume) JVM2 (JVM2): Additivity (between 1 and −1: additivity); Combination effect (Loewe Volume) MAVER1 (MAVER1): Synergy (VLoewe>1: synergy); Combination effect (Loewe Volume) MINO (MINO): Synergy (VLoewe>1: synergy); Combination effect (Loewe Volume) Z138 (Z138): No Effect; Combination effect (Loewe Volume) GRANTA519 (GRANTA519): Additivity (between 1 and −1: additivity) |
